This is an account of results in patent US6384075B1, “Bicyclic amino derivatives and PGD2, antagonist containing them” (Shionogi & Co., Ltd., priority 1995, dated 2002).

Assay [1] has as its system nasal cavity resistance (nasal occlusion model). In words: Nasal occlusion model: nasal cavity resistance after antigen (OVA) exposure in sensitized guinea pig. It is filed as in vivo. Particulars: 1 mg/kg (i.v.), 10 min before antigen exposure. The method, then:
Experiment Using Nasal Occlusion Model
The method used for measuring the nasal cavity resistance and evaluating the anti-nasal occlusion using a guinea pig are described below.
A 1% ovalbumin (OVA) solution was treated with ultrasonic nebulizer to obtain an aerosol. Hartley male guinea pig was sensitized by inhaling twice the aerosol for 10 min at one-week interval. Seven-day after the sensitization, the guinea pig was exposed to an antigen to initiate the reaction. Then the trachea was incised under the anesthesia with pentobarbital (30 mg/kg, i.p.) and cannulas were inserted into the trachea at the pulmonary and nasal cavity sides. The canal inserted at the pulmonary side was connected with an artificial respirator that provides 4 ml air 60 times/min. After arresting the spontaneous respiration of a guinea pig with Garamin (2 mg/kg, i.v.), air was supplied to the snout side with an artificial respirator at the frequency of 70 times/min, and the flow rate of 4 ml air/time, and the atmospheric pressure required for the aeration was measured by the use of a transducer fitted at the branch. The measurement was used as a parameter of the nasal cavity resistance. The exposure of an antigen was carried out by generating aerosol of 3% OVA solution for 3 min between the respirator and nasal cavity cannula. The test drug was injected intravenously 10 min before the antigen exposure. […]

In the next assay the target is T1, PGD2 receptor (Homo sapiens, UniProt Q13258).
T1 construct: Preparation of Human Platelet Membrane Fraction; from tissue; host or cells: human platelets (membrane fraction) from blood of healthy volunteers
T1 sequence (Q13258 1-359): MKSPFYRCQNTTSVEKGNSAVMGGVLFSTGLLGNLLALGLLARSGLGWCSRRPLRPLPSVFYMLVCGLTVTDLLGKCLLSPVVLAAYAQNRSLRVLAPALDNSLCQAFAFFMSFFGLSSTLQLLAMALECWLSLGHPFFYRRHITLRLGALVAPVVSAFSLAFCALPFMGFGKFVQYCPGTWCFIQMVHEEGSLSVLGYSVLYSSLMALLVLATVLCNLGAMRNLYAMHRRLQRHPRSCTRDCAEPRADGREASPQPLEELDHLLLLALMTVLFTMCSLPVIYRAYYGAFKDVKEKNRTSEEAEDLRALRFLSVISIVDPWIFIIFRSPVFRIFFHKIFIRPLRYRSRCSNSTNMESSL
In words: Binding to PGD2 receptor ([3H]PGD2, human platelet membrane fraction). The following applies: 5 nM [3H]PGD2, 4° C., 90 min, read-out: Activity (binding-inhibitory activity, concentration required for 50% inhibition, IC50). As to the method:
(1) Preparation of Human Platelet Membrane Fraction
Blood sample was obtained using a plastic syringe containing 3.8% sodium citrate from a venous of healthy volunteers (adult male and female), put into a plastic test tube and mixed gently by inversion. The sample was then centrifuged at 1800 rpm, 10 min at room temperature, and supernatant containing PRP (platelet rich plasma) was collected. The PRP was re-centrifuged at 2300 rpm, 22 min at room temperature to obtain platelets. The platelets were homogenized using a homogenizer (Ultra-Turrax) followed by centrifugation 3 times at 20,000 rpm, 10 min at 4° C. to obtain platelet membrane fraction. After protein determination, the membrane fraction was adjusted to 2 mg/ml and preserved in a refrigerator at […] until use.
(2) Binding to PGD2 Receptor
To a binding-reaction solution (50 mM Tris/HCl, pH 7.4, 5 mM MgCl2) (0.2 ml) were added human platelet membrane fraction (0.1 mg) and 5 nM [3H]PGD2 (115 Ci/mmol), and reacted at 4° C. for 90 min. After the reaction completed, the reaction mixture was filtered through the glass fiber filter paper, washed several times with cooled saline, and measured radioactivity retained on the filter paper. The specific binding was calculated by subtracting the non-specific binding (the binding in the presence of 10 μM PGD2) from the total binding. […]

Turning to `O=C(O)CCC/C=C\C[C@@H]1[C@H]2CC[C@H](C2)[C@H]1NS(=O)(=O)c1ccc2oc3ccccc3c2c1` [1a-2, (Z)-7-[(1S,2R,3R,4R)-3-(2-dibezofuryl)sulfonylaminobicyclo[2.2.1]hept-2-yl]-5-heptenoic acid], in assay [1], the “Inhibition Rate (%) of nasal cavity resistance (AUC 0-30 min vs vehicle)” value is 82%. Besides, the IC50 on PGD2 receptor was 130 nM.
